“And” between values parts separate entries of the source, which are not always exact repeats. Equal values may be shown once. “Also recorded” adds a separate entry of the source.
How the values were obtained:
[1] = tested on: FXR; settings: cited from earlier work
[2] = molecular target: T1, TGR5 (Homo sapiens, UniProt Q8TDU6); settings: cited from earlier work
T1 construct: host or cells: CHO cells
T1 sequence (Q8TDU6 1-330): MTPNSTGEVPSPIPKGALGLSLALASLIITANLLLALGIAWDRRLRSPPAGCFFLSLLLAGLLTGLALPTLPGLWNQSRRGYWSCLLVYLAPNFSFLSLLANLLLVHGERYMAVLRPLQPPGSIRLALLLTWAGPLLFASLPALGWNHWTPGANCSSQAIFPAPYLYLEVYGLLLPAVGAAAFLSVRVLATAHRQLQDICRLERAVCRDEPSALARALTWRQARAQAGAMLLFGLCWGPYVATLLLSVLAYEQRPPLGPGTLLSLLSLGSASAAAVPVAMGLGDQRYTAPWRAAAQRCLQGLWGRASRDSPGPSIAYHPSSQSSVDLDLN

[3] = molecular target: T1, TGR5; assay: TGR5 cAMP assay in CHO cells transfected with TGR5 (cAMP Hunter eXpress, Discover X); format: cell-based
Protocol: TGR5 agonist activity was evaluated by transfecting CHO cells with TGR5 using the Discover X expression kit (cAMP Hunter eXpress GPCR Assay, Discover X Fremont, CA). Cells were incubated with test compounds for 0.5 h, and intracellular cAMP levels were measured using the multi-mode microplate reader.
(§1) TGR5 agonist activity was evaluated by transfecting CHO cells with TGR5 using the Discover X expression kit (cAMP Hunter eXpress Assay Kit, Discover X Fremont, CA, USA). Cells were incubated with the test compounds for 0.5 h, and intracellular cAMP levels were measured using Multi-Mode Microplate Reader (FlexStation 3, Molecular Devices Inc., San Jose, CA, USA).
Each compound was tested at concentrations of 10, 1, or 0.1 µM in duplicate (n = 2), with the average value shown.
S4. In vitro, in vivo assay, and selectvity. […]
In vitro TGR5 agonist assay protocol
as §1
Each compound was tested at concentrations of 10, 1, or 0.1 µM in duplicate (n=2), with the […]
parameter logistic equation, Y = min + (max - min)/(1 + 10^(n * (log10(EC50) - log10(conc)))), in […]

[4] = molecular target: T2, FXR (Homo sapiens, UniProt Q96RI1); assay: CHO cell-based FXR luciferase reporter assay (Indigo Biosciences)
T2 construct: host or cells: CHO cells
T2 sequence (Q96RI1 1-486): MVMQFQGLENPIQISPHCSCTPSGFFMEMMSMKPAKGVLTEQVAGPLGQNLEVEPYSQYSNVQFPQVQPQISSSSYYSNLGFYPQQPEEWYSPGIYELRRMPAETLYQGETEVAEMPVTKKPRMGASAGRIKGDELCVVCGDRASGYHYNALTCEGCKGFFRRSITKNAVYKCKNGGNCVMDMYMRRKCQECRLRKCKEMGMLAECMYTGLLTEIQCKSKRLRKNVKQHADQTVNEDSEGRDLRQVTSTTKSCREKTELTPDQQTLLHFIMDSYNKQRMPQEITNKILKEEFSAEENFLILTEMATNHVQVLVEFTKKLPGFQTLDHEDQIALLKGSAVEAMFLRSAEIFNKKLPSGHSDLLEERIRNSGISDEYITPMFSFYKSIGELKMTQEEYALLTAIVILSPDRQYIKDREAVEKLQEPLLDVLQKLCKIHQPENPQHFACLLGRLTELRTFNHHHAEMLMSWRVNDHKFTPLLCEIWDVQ
Protocol: To evaluate direct agonist activities against FXR, test compounds were evaluated using a CHO cell-based FXR assay by Indigo Biosciences (State College, PA), in which cells were transfected with an FXR luciferase reporter system.
To directly evaluate the in vitro agonist activity towards FXR, test compounds were evaluated in CHO cells transfected with FXR responsive luciferase reporter (Nuclear Receptor & In Vitro Toxicology Solutions, Indigo Biosciences, State College, PA, USA). […] Each compound was tested in duplicate, and the average value was reported[35],[36].
(§2) The cell recovery medium (CRM, Human Farnesoid X Receptor (NR1H4, FXR reporter assay system, Indigo Biosciences, State College, PA, USA) and compound screening medium (CSM, Human Farnesoid X Receptor (NR1H4, FXR reporter assay system, Indigo Biosciences, State College, PA, USA) were removed from the freezer and thawed in a water bath at 37 °C. Test compounds were dissolved in dimethyl sulfoxide (DMSO, FUJIFILM Wako Pure Chemical Corporation, Osaka city, Osaka, Japan), and the treatment medium was prepared and diluted with CSM to achieve a final concentration of 0.2% total DMSO. The reporter cells were thawed by transferring 3.3 mL CRM at 37 °C into tubes of frozen cells. The tube containing reporter cells was recapped, and it was immediately place in a 37 °C water bath for 5 min. The reporter cells were gently inverted several times, and 100 µL cell suspension was dispensed into each well. One hundred microliters of treatment media was added into wells. Subsequently, the assay plate was kept at 37 °C, and it was incubated with 5% CO2 for 22 h. To prepare luciferase detection reagent (LDR), the detection substrate was gently mixed with detection buffer, media contents were removed from each well, and 100 µL LDR was added to each well of the assay plate. The assay plate was allowed to rest at room temperature for 5 min, and luminescence was quantified using the Multi-Mode Microplate Reader (FlexStation 3, Molecular Devices Inc., San Jose, CA, USA)[36].
S4. In vitro, in vivo assay, and selectvity.
To directly evaluate the in vitro agonist activity towards FXR, test compounds were evaluated in CHO cells transfected with FXR responsive luciferase reporter (Nuclear Receptor & In Vitro Toxicology Solutions, Indigo Biosciences, State College, PA, USA). Cells were incubated with […]
(FlexStation 3, Molecular Devices Inc., San Jose, CA, USA). Efficacies are reported relative to […]
reporter on of 1 µM. Each compound was tested in duplicate, and the average value was […]
as §2, with “sulfoxide (DMSO ,” for “sulfoxide (DMSO,”, “Osaka, Jap an),” for “Osaka, Japan),”, “a 37°C” for “a 37 °C”, “5% CO 2” for “5% CO2”, “using […]” for “using the Multi-Mode Microplate Reader (FlexStation 3, Molecular Devices Inc., San Jose, CA, USA)[36].”

| SMILES | FXR agonist activity (in words) [4] | FXR Efficacy (%) (1 µM) ([4]; % vs OCA 1 µM as 100%) | TGR5 agonist activity (in words) [3] | TGR5 Efficacy (%) (10 µM) ([3]; % vs INT-767 10 µM as 100%) | further results |
| --- | --- | --- | --- | --- | --- |
| Cc1cc2c(CN(C(=O)c3ccncc3C)c3ccc(F)cc3C)cccc2[nH]1 [Compound 8, reference compound] | – | – | – | – | Reported FXR activity (in words) [1]: no agonist or antagonist activity against FXR; Reported TGR5 activity (in words) [2]: TGR5 agonist; TGR5 Efficacy (%) (0.1 µM) ([3]; 0.1 µM, % vs INT-767 10 µM as 100%): 84.7%; TGR5 Efficacy (%) (1 µM) ([3]; % vs INT-767 10 µM as 100%): 84.7% and 66.1% |
| CN(C)c1ccc(-c2ccc(CN(C(=O)c3ccnnc3)c3cc(Cl)cc(Cl)c3)cc2)cc1 [Compound 13ab] | did not have any activity against either FXR or TGR5 | 0.5% | did not have any activity against either FXR or TGR5 | -12% | – |
| Cc1cccc([C@H]2CC[C@H](CN(C(=O)c3ccncc3C)c3cc(Cl)cc(Cl)c3)CC2)c1 [Compound 20c] | – | 51.7% | – | 5.7% | – |
| Cc1cnccc1C(=O)N(Cc1ccc(-c2ccc(N(C)C)cc2)cc1)c1cc(Cl)cc(N2CCC2)c1 [Compound 13n] | – | 20.2% | – | 10.2% | – |
| CN(C)c1ccc(-c2ccc(CN(C(=O)C3CCC(O)CC3)c3cc(Cl)cc(Cl)c3)cc2)cc1 (stereo not drawn) [Compound 13ae] | strong FXR activities | 101.4% | – | -1.5% | – |
| COc1ccc(C23CCC(CN(C(=O)c4ccncc4C)c4cc(Cl)cc(Cl)c4)(CC2)CC3)cc1C [Compound 20f] | partial FXR agonists | 90.3% | weak TGR5 agonist | 28.8% | FXR Efficacy (%) (10 µM) ([4]; 10 µM, % vs OCA 1 µM as 100%): 64.3% |
| Cc1cnccc1C(=O)N(CC12CCC(c3ccc4c(c3)CCO4)(CC1)CC2)c1cc(Cl)cc(Cl)c1 [Compound 20m] | – | 91.5% | – | 72.4% | FXR Efficacy (%) (0.1 µM) ([4]; % vs OCA 1 µM as 100%): 58.5% |
| Cc1cnccc1C(=O)N(C[C@H]1CC[C@H](c2ccccc2)CC1)c1cc(Cl)cc(Cl)c1 [Compound 20a] | – | 52.2% | – | 22.3% | – |
| Cc1cnccc1C(=O)N(Cc1ccc(-c2ccccc2)cc1)c1cc(Cl)cc(Cl)c1 [Compound 13ah] | – | 17.7% | TGR5 full agonist | 118.6% | – |
| COC(=O)/C=C/c1cc(Cl)cc(N(Cc2ccc(-c3ccc(N(C)C)cc3)cc2)C(=O)c2ccncc2C)c1 [Compound 13m] | – | 72.5% | – | 6.7% | – |
| COc1ccc(C23CCC(CN(C(=O)c4ccncc4C)c4cc(F)cc(Cl)c4)(CC2)CC3)cc1C [Compound 20i] | – | 89.2% | – | 62.1% | FXR Efficacy (%) (0.1 µM) ([4]; % vs OCA 1 µM as 100%): 62.6% |
| Cc1cnccc1C(=O)N(Cc1ccc(-c2ccc(N(C)C)cc2)cc1)c1cc(Cl)cc(Cl)c1 [Compound 13j] | potent FXR/TGR5 dual agonist activity; also recorded: dual potencies against both FXR and TGR5 | 62.1% | potent FXR/TGR5 dual agonist activity; also recorded: dual potencies against both FXR and TGR5 | 59.7% | – |
| Cc1cnccc1C(=O)N(CC12CCC(c3ccc4c(c3)OCCO4)(CC1)CC2)c1cc(Cl)cc(Cl)c1 [Compound 20r] | – | 72.6% | most potent TGR5 activity | – | FXR Efficacy (%) (0.1 µM) ([4]; % vs OCA 1 µM as 100%): 28.0%; TGR5 Efficacy (%) (1 µM) ([3]; % vs INT-767 10 µM as 100%): 57.1% |
| COc1cnccc1C(=O)N(Cc1ccc(-c2ccc(N(C)C)cc2)cc1)c1cc(Cl)cc(Cl)c1 [Compound 13aa] | weak dual agonist activity | 68.6% | weak dual agonist activity | 21.5% | – |

From PMC8080777, “Discovery, optimization, and evaluation of non-bile acid FXR/TGR5 dual agonists” (Scientific Reports, 2021)
